# In PubChem BioAssay (NCI):
#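 1) Cells in 96-well plates. 2) Compound, 48 h, 5 concentrations. 3) Linear interpolation between surrounding doses. 4) Unreached endpoint = highest concentration. TGI denotes the concentration required for complete inhibition of growth.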
# Test system: HS 578T breast
# Assay: NCI-60 cell line screen, 48 h
row,SMILES,TGI [µM]
1,CN(Cc1cnc2nc(N)nc(N)c2n1)c1ccc(C(=O)NC(CCC(=O)NCCC(P(=O)(O)O)P(=O)(O)O)C(=O)O)cc1 (stereo not given),> 100
2,O=C1NC(NNc2ccccc2)=N/C1=C\c1ccccc1O,> 100
3,CCOC(=O)C1=C(C)N(Cc2ccc(Cl)cc2Cl)C2(O)C=CC(=O)C3C(=O)N(c4ccccc4)C(=O)C132 (stereo not given),36.3
4,N=C1/C(=C/c2ccc(F)cc2)C(=O)N=C2SC=NN12,> 100
5,COC(=O)CC(C#N)(OP1(=O)OC(c2ccccc2)C(C)N1C)c1ccccc1 (stereo not given),> 100
6,CN1CCN(C(=O)CCNC(=O)Cc2ccc(C(=O)c3ccccc3)cc2)CC1,> 100
7,O=c1cnn(C2OC(C(O)CO)C(O)C2O)c(=O)[nH]1 (stereo not given),> 100
8,COc1ccc(N2C(=O)C(=O)N(c3ccccc3[N+](=O)[O-])C2=S)cc1,84
9,Nc1c2c(nc3cc(F)c(F)cc13)CCC2,> 100
10,CCCn1c2ccccc2c2ccc3c(c21)C(=O)C=CC3=O,> 10
11,C=C(CCC/C(C)=C/C=C/[C@]1(C)CCCc2ccoc21)CC(=O)O,> 100
12,CCOC(=O)c1c(NC(=O)c2cccs2)sc2c1CCCC2,76.9
13,CCCC[C@@H]1CCN2C[C@@H](O)[C@@H](O)[C@@H]2[C@H]1O,> 100

# Test system: K-562 leukemia
# Assay: NCI-60 cell line screen, 48 h
row,SMILES,TGI [µM]
1,CN(Cc1cnc2nc(N)nc(N)c2n1)c1ccc(C(=O)NC(CCC(=O)NCCC(P(=O)(O)O)P(=O)(O)O)C(=O)O)cc1 (stereo not given),> 100
2,O=C1NC(NNc2ccccc2)=N/C1=C\c1ccccc1O,> 100
3,CCOC(=O)C1=C(C)N(Cc2ccc(Cl)cc2Cl)C2(O)C=CC(=O)C3C(=O)N(c4ccccc4)C(=O)C132 (stereo not given),4.04
4,N=C1/C(=C/c2ccc(F)cc2)C(=O)N=C2SC=NN12,> 100
5,COC(=O)CC(C#N)(OP1(=O)OC(c2ccccc2)C(C)N1C)c1ccccc1 (stereo not given),78.7
6,CN1CCN(C(=O)CCNC(=O)Cc2ccc(C(=O)c3ccccc3)cc2)CC1,> 100
7,O=c1cnn(C2OC(C(O)CO)C(O)C2O)c(=O)[nH]1 (stereo not given),> 100
8,COc1ccc(N2C(=O)C(=O)N(c3ccccc3[N+](=O)[O-])C2=S)cc1,> 100
9,Nc1c2c(nc3cc(F)c(F)cc13)CCC2,> 100
10,CCCn1c2ccccc2c2ccc3c(c21)C(=O)C=CC3=O,2.24
11,C=C(CCC/C(C)=C/C=C/[C@]1(C)CCCc2ccoc21)CC(=O)O,> 100
12,CCOC(=O)c1c(NC(=O)c2cccs2)sc2c1CCCC2,> 100
13,CCCC[C@@H]1CCN2C[C@@H](O)[C@@H](O)[C@@H]2[C@H]1O,> 100

# Test system: KM12 colon
# Assay: NCI-60 cell line screen, 48 h
row,SMILES,TGI [µM]
1,CN(Cc1cnc2nc(N)nc(N)c2n1)c1ccc(C(=O)NC(CCC(=O)NCCC(P(=O)(O)O)P(=O)(O)O)C(=O)O)cc1 (stereo not given),> 100
2,O=C1NC(NNc2ccccc2)=N/C1=C\c1ccccc1O,> 100
3,CCOC(=O)C1=C(C)N(Cc2ccc(Cl)cc2Cl)C2(O)C=CC(=O)C3C(=O)N(c4ccccc4)C(=O)C132 (stereo not given),3.65
4,N=C1/C(=C/c2ccc(F)cc2)C(=O)N=C2SC=NN12,> 100
5,COC(=O)CC(C#N)(OP1(=O)OC(c2ccccc2)C(C)N1C)c1ccccc1 (stereo not given),48.8
6,CN1CCN(C(=O)CCNC(=O)Cc2ccc(C(=O)c3ccccc3)cc2)CC1,> 100
7,O=c1cnn(C2OC(C(O)CO)C(O)C2O)c(=O)[nH]1 (stereo not given),> 100
8,COc1ccc(N2C(=O)C(=O)N(c3ccccc3[N+](=O)[O-])C2=S)cc1,71.9
9,Nc1c2c(nc3cc(F)c(F)cc13)CCC2,> 100
10,CCCn1c2ccccc2c2ccc3c(c21)C(=O)C=CC3=O,> 10
11,C=C(CCC/C(C)=C/C=C/[C@]1(C)CCCc2ccoc21)CC(=O)O,> 100
12,CCOC(=O)c1c(NC(=O)c2cccs2)sc2c1CCCC2,> 100
13,CCCC[C@@H]1CCN2C[C@@H](O)[C@@H](O)[C@@H]2[C@H]1O,> 100

# Test system: MDA-MB-435
# Assay: NCI-60 cell line screen, 48 h
row,SMILES,TGI [µM]
1,CN(Cc1cnc2nc(N)nc(N)c2n1)c1ccc(C(=O)NC(CCC(=O)NCCC(P(=O)(O)O)P(=O)(O)O)C(=O)O)cc1 (stereo not given),> 100
2,O=C1NC(NNc2ccccc2)=N/C1=C\c1ccccc1O,> 100
3,CCOC(=O)C1=C(C)N(Cc2ccc(Cl)cc2Cl)C2(O)C=CC(=O)C3C(=O)N(c4ccccc4)C(=O)C132 (stereo not given),7.24
4,N=C1/C(=C/c2ccc(F)cc2)C(=O)N=C2SC=NN12,> 100
5,COC(=O)CC(C#N)(OP1(=O)OC(c2ccccc2)C(C)N1C)c1ccccc1 (stereo not given),53.7
6,CN1CCN(C(=O)CCNC(=O)Cc2ccc(C(=O)c3ccccc3)cc2)CC1,56
7,O=c1cnn(C2OC(C(O)CO)C(O)C2O)c(=O)[nH]1 (stereo not given),> 100
8,COc1ccc(N2C(=O)C(=O)N(c3ccccc3[N+](=O)[O-])C2=S)cc1,88.2
9,Nc1c2c(nc3cc(F)c(F)cc13)CCC2,> 100
10,CCCn1c2ccccc2c2ccc3c(c21)C(=O)C=CC3=O,5.29
11,C=C(CCC/C(C)=C/C=C/[C@]1(C)CCCc2ccoc21)CC(=O)O,> 100
12,CCOC(=O)c1c(NC(=O)c2cccs2)sc2c1CCCC2,> 100
13,CCCC[C@@H]1CCN2C[C@@H](O)[C@@H](O)[C@@H]2[C@H]1O,> 100

# Test system: MOLT-4 leukemia
# Assay: NCI-60 cell line screen, 48 h
row,SMILES,TGI [µM]
1,CN(Cc1cnc2nc(N)nc(N)c2n1)c1ccc(C(=O)NC(CCC(=O)NCCC(P(=O)(O)O)P(=O)(O)O)C(=O)O)cc1 (stereo not given),> 100
2,O=C1NC(NNc2ccccc2)=N/C1=C\c1ccccc1O,> 100
3,CCOC(=O)C1=C(C)N(Cc2ccc(Cl)cc2Cl)C2(O)C=CC(=O)C3C(=O)N(c4ccccc4)C(=O)C132 (stereo not given),4.93
4,N=C1/C(=C/c2ccc(F)cc2)C(=O)N=C2SC=NN12,> 100
5,COC(=O)CC(C#N)(OP1(=O)OC(c2ccccc2)C(C)N1C)c1ccccc1 (stereo not given),59.2
6,CN1CCN(C(=O)CCNC(=O)Cc2ccc(C(=O)c3ccccc3)cc2)CC1,> 100
7,O=c1cnn(C2OC(C(O)CO)C(O)C2O)c(=O)[nH]1 (stereo not given),> 100
8,COc1ccc(N2C(=O)C(=O)N(c3ccccc3[N+](=O)[O-])C2=S)cc1,> 100
9,Nc1c2c(nc3cc(F)c(F)cc13)CCC2,> 100
10,CCCn1c2ccccc2c2ccc3c(c21)C(=O)C=CC3=O,2.26
11,C=C(CCC/C(C)=C/C=C/[C@]1(C)CCCc2ccoc21)CC(=O)O,> 100
12,CCOC(=O)c1c(NC(=O)c2cccs2)sc2c1CCCC2,> 100
13,CCCC[C@@H]1CCN2C[C@@H](O)[C@@H](O)[C@@H]2[C@H]1O,> 100
